One molecule from patent publication US11491135B2 (priority 2019, dated 2022) can be followed below.

Like-named read-outs stand apart in the source and are kept apart here.

In test [1] the test system is Clostridium perfringens ATCC13124. It counts as cell-based. To be noted: 0.7% BHIA plates, anaerobic 37° C., 48 h.
For the next test, the system named is Clostridium perfringens. It counts as cell-based. The conditions noted are these: 4, 8, 16 and 32 μg/ml, 30° C., 5 days, crystal violet absorbance at 570 nm.
The subject of test [2] is Clostridium perfringens ATCC13124. Format: in vivo, Arbor Acre broiler chickens. To be noted: 25 mg/kg orally every 12 h, 5 days.

For the molecule `COc1c(O)cc2occ(-c3ccc(O)cc3)c(=O)c2c1O` [tectorigenin], the “gliding motility of Clostridium perfringens on BHIA” value in test [1] (8 μg/ml tectorigenin) and in test [1] (32 μg/ml tectorigenin) was “significantly inhibit” throughout. Moreover, the “biofilm formation of Clostridium perfringens” value in the test on Clostridium perfringens is reported as “effectively inhibit”. In addition, in test [2], the “daily weight gain of broiler chickens, treatment group vs infected group” value is listed as “significantly higher than that of the infected group”. The “histopathological injury of small intestine (HE staining)” value in test [2] was “significantly alleviated”. In addition, in test [2] (chickens sacrificed at 21-day-old), the “degree of pathological changes of the necrotic enteritis in the intestinal tract (intestinal lesion scoring, 0-6)” value was “significantly reduced”.
